Here are results for nine molecules from patent US20240025899A1, “TRIHETEROCYCLIC DERIVATIVE, AND PHARMACEUTICAL COMPOSITION AND APPLICATION THEREOF” (SHANGHAI DE NOVO PHARMATECH CO., LTD., priority 2020, published 2024).

Assay [1] relates to OCI-LY19 human B-cell lymphoma. The assay can be described thus: In vivo drug efficacy, OCI-LY19 human B-cell lymphoma mouse subcutaneous xenograft tumor model. The note with it: Group 2, 20 mg/kg p.o. once a day. As to the method: Cell culture: Human B-cell lymphoma OCI-LY19 cells were maintained as a monolayer in MEM-α medium containing 10% fetal bovine serum in a constant temperature incubator at 37° C. with 5% CO2. Tumor cells were subcultured twice a week. Cells in exponential growth phase were harvested and counted for inoculation.
Experimental animals: BALB/c nude mice, 6-8 weeks old, 19-22 g, purchased from Beijing Vital River Laboratory Animal Technology Co., Ltd.
For Vehicle, positive control (AZD6738, CAS number: 1352226-88-0) and compound 2, a total of 6 experimental groups were set up, as shown in Table 5 below:
Experimental method: The OCI-LY19 cell line (3.0×10^6 cells/mouse) was inoculated subcutaneously on the right back of the experimental mouse, and the inoculation volume of each mouse was 0.1 mL, and the growth of tumors was observed regularly, and until the tumor grew to about 100 mm^3, the mice were randomly divided into groups according to the tumor size and body weight, and administered according to the administration plan shown in Table 5, and the mouse body weight and tumor size were measured twice a week during the whole experiment.
tumor volume (mm^3)=0.5×(tumor long diameter×tumor short diameter^2). Tumor size calculation formula: […]

A further assay deals with ATR/ATRIP kinase (Homo sapiens (Human), UniProt Q13535). The assay can be described thus: ATR enzyme assay (HTRF, phosphorylation of substrate protein P53). The class given is biochemical. The note with it: substrate P53, TR-FRET. As to the method: In this experiment, the phosphorylation level of substrate protein P53 (Eurofins, 14-952) was detected by HTRF technology to measure the activity of ATR/ATRIP (Eurofins, 14-953) kinase. Reaction buffer (25 mM HEPES pH 8.0, 0.01% Brij-35, 1% Glycerol, 5 mM DTT, 1 mg/mL BSA), termination buffer (12.5 mM HEPES pH 8.0, 0.005% Brij-35, 0.5% Glycerol, 250 mM EDTA) and assay buffer (50 mM HEPES pH 7.0, 150 mM NaCl, 267 mM KF, 0.1% sodium cholate, 0.01% Tween 20) were prepared in advance. ATR/ATRIP was diluted with reaction buffer to a working solution of 2 ng/μL, and the substrate protein P53 was diluted with reaction buffer to a working solution of 80 nM, and 4 nM of ATP (Sigma, A2383) working solution (containing 40 mM MnCl2) was prepared with reaction buffer. The compound was 3-fold diluted with DMSO, then diluted with reaction buffer into a working solution, then added to a 384-well plate at 2.5 μL/well, and centrifuged at 1500 rpm for 40 s. Then 2.5 μL of ATR/ATRIP working solution, P53 working solution and ATP working solution were added into the 384-well plate, centrifuged at 1500 rpm for 40 s and reacted at room temperature for 30 minutes. After the reaction was completed, 5 μL of termination buffer was added to each well, and centrifuged at 1500 rpm for 40 s. Antibody working solution containing 0.083 μg/mL anti-phospho-p53 (Ser15)-K (CisBio, cat. 61P08KAE) and 5 μg/mL anti-GST-d2 (CisBio, cat. 61GSTDLA) was prepared with assay buffer and added to the 384-well plate at 5 μL/well, then centrifuged at 1500 rpm for 40 s and reacted overnight at room temperature. Microplate reader (Tecan, Infinite M1000 Pro) was used to detect TR-FRET, and the data were analyzed with Graphpad software, and the four-parameter equation was used to fit the curve and calculate the IC50 value of the inhibitor (Table 1).
A general note: TR-FRET usually uses a lanthanide donor and a delayed reading to cut background.

The subject of assay [2] is LOVO human colon cancer cell line. The assay can be described thus: Cell proliferation assay (Cell titer glo). Format: cell-based. The note with it: LOVO cells, 72 hours. As to the method:
In the present disclosure, cell assays were used to evaluate the biological activity of compounds. LOVO (Nanjing Cobioer), a human colon cancer cell line, was cultured in a Dulbecco's Modified Eagle's medium 96-well plate, supplemented with 10% fetal bovine serum and 1% P/S, and the culture environment was 37° C. and 5% CO2. Compound concentrations were ranged from 4.5 nM to 30 μM. The stock solution of the test compound was dissolved in DMSO and added to the medium at the indicated concentration, and incubated for 72 hours. Negative control cells were treated with vehicle only. In some experiments, known ATR inhibitors were added as positive controls. Cell viability was evaluated using the Cell titer glo kit (CTG, Promega) under the instructions of the product specification. The data were analyzed using Graphpad software, and IC50 values and compound fitting curves were obtained (Table 2).
On the technique in general: ATP-based viability assays read luminescence as a measure of living cells.

pIC50: −log10 of the molar value. Structures can show the parent of a compound that is named as a salt.

ATR/ATRIP kinase, sequence (Q13535 whole entry): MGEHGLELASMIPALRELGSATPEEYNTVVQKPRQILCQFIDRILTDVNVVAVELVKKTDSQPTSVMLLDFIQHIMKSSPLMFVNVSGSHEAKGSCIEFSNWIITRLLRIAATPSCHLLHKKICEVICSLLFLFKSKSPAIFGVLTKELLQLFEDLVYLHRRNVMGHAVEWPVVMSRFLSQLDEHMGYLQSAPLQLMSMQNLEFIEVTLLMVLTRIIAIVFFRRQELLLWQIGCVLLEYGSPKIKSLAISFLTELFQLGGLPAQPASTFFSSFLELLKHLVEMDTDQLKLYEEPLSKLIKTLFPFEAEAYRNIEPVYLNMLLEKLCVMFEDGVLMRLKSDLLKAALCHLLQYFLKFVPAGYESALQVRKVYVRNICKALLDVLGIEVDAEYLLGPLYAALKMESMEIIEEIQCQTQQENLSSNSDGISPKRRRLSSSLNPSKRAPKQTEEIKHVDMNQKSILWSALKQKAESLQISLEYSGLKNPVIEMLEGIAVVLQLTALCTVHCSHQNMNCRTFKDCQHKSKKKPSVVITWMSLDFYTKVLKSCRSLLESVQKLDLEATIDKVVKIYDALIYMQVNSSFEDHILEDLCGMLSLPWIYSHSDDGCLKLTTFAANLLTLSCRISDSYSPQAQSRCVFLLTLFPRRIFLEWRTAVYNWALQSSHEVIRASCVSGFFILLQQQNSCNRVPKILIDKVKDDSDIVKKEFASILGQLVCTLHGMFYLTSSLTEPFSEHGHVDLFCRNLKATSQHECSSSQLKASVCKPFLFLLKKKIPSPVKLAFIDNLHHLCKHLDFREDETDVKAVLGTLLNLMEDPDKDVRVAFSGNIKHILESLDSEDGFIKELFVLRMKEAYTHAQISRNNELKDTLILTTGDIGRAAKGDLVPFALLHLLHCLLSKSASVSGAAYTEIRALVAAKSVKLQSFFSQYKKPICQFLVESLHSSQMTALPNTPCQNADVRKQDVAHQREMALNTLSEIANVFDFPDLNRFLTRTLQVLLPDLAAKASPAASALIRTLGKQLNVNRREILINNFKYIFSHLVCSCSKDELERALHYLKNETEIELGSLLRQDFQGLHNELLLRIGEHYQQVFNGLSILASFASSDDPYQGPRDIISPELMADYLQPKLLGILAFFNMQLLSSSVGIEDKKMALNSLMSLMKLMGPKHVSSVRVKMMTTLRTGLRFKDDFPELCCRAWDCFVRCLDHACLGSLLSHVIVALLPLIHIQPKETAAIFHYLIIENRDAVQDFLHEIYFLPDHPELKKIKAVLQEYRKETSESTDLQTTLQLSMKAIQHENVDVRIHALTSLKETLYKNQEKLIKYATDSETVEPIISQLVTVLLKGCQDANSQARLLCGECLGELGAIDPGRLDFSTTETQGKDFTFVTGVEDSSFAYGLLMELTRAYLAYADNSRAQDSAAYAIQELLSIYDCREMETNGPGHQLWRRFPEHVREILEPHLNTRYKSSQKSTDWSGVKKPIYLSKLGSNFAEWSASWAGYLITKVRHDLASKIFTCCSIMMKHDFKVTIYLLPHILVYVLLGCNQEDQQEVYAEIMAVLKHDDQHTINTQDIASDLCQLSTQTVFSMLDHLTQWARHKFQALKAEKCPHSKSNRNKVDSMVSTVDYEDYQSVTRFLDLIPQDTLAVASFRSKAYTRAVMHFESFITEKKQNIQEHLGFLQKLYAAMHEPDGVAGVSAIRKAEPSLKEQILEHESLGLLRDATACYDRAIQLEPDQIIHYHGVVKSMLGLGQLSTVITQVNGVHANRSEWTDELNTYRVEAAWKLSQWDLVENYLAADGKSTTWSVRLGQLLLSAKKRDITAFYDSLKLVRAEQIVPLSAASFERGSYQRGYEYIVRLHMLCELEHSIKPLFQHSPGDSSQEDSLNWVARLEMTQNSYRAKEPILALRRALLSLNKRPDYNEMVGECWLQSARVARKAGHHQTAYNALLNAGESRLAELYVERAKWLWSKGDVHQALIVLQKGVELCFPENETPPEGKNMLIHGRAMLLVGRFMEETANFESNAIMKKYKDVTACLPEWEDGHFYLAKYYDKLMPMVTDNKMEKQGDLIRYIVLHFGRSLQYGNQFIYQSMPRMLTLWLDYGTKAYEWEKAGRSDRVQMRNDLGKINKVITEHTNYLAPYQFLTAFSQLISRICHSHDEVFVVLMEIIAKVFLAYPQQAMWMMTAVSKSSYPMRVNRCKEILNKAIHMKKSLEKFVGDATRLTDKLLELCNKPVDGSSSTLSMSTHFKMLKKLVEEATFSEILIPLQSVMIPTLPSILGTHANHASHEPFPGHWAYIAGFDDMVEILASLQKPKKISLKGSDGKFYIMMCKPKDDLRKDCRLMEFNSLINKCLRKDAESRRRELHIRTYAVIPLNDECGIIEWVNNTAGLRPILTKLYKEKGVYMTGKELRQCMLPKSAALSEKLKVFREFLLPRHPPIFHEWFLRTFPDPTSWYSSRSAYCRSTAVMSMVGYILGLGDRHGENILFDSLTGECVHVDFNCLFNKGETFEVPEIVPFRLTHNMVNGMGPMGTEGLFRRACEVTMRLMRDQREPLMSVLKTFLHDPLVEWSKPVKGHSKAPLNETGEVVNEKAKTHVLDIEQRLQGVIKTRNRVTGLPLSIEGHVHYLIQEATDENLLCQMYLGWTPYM
ATR/ATRIP kinase, sequence (Q8WXE1 whole entry partner): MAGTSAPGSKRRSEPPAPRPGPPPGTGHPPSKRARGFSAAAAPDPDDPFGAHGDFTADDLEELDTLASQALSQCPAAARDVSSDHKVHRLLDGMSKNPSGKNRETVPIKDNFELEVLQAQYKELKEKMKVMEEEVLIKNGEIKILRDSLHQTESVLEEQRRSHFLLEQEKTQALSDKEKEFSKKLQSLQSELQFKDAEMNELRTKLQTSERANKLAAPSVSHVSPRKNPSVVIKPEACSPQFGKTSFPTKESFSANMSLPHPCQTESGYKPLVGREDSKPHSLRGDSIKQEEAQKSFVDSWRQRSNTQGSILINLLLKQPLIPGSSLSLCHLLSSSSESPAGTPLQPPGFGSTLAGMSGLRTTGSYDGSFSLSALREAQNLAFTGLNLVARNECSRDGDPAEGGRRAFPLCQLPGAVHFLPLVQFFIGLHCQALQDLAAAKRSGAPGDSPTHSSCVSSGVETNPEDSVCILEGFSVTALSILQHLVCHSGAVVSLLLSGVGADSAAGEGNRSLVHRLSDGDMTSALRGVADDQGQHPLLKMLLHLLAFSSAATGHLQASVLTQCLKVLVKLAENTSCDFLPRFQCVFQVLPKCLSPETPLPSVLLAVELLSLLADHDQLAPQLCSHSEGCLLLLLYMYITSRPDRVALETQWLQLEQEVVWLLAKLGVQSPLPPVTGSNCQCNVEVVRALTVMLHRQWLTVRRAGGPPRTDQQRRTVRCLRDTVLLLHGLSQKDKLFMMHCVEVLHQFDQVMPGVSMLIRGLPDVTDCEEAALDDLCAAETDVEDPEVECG

For `C[C@@H]1COCCN1c1cc(C2([S@](C)(=N)=O)CC2)nc(-c2cc[nH]c3nccc2-3)n1` [AZD6738, reference compound], in assay [1], the “T/C (%)” value was 31.2% and the “TGI (%)” value was 72.1%. The “Tumor volume (10 days, mm^3)” value in assay [1] (10 days) worked out at 108.23 ± 4.67 mm^3. Further, the “Tumor volume (24 days, mm^3)” value in assay [1] (24 days) worked out at 738.65 ± 257.29 mm^3.
As usually defined, the pIC50 is the negative decadic logarithm of the IC50, by convention in mol/L. A higher pIC50 goes with a low IC50. For `C[C@@H]1COCCN1c1nc2c(cnn2-c2cc[nH]n2)c2c1CCN2S(=O)(=O)N(C)C` [Compound 4, (R)—N,N-dimethyl-4-(3-methylmorpholino)-6-(1H-pyrazol-3-yl)-2,3-dihydropyrazolo[3,4-b]pyrrolo[2,3-d]pyridine-1(6H)-sulfonamide trifluoroacetate], the pIC50 against ATR/ATRIP kinase is 8.74.
On to `C[C@@H]1COCCN1c1nc2c(cnn2-c2cc[nH]n2)c2c1CCN2S(N)(=O)=O` [Compound 5, (R)-4-(3-methylmorpholine)-6-(1H-pyrazol-3-yl)-2,3-dihydropyrazolo[3,4-b]pyrrolo[2,3-d]pyridine-1(6H)-sulfonamide], for which the pIC50 in assay [2] is 6.58.
In the case of `C[C@@H]1COCCN1c1nc2c(cnn2-c2cc[nH]n2)c2c1CCN2S(=O)(=O)C(F)(F)F` [Compound 6, (R)-4-(6-(1H-pyrazol-3-yl)-1-((trifluoromethyl)sulfonyl)-1,2,3,6-tetrahydropyrazolo[3,4-b]pyrrolo[2,3-d]pyridin-4-yl)-3-methylmorpholine trifluoroacetate], the pIC50 in assay [2] was 7.10; on ATR/ATRIP kinase, 8.32.
As to `C[C@@H]1COCCN1c1nc2c(c(C#N)nn2-c2cc[nH]n2)c2c1CCN2S(C)(=O)=O` [Compound 7, (R)-4-(3-methylmorpholinyl)-1-(methylsulfonyl)-6-(1H-pyrazol-3-yl)-1,2,3,6-tetrahydropyrazolo[3,4-b]pyrrolo[2,3-d]pyridine-8-carbonitrile], the pIC50 in assay [2] was 6.39; against ATR/ATRIP kinase, 7.34.
The like results for `C[C@@H]1COCCN1c1nc2c(-c3cc[nH]n3)nccc2c2c1ccn2S(C)(=O)=O` [Compound 8, (R)-3-methyl-4-(1-(methylsulfonyl)-6-(1H-pyrazol-3-yl)-1H-pyrrolo[3,2-c][1,7]naphthyridin-4-yl)morpholine] were, in that order, 7.49 and 7.40.
For `C[C@@H]1COCCN1c1nc2c(cnn2-c2cc[nH]n2)c2c1CCN2C1CC1` [Compound 11, (R)-4-(1-cyclopropyl-6-(1H-pyrazol-3-yl)-1,2,3,6-tetrahydropyrazolo[3,4-b]pyrrolo[2,3-d]pyridin-4-yl)-3-methylmorpholine], the pIC50 is 7.14 in assay [2] and 8.23 on ATR/ATRIP kinase.
`C[C@@H]1COCCN1c1nc2c(cnn2-c2cc[nH]n2)c2c1CCN2C` [Compound 12, (R)-3-methyl-4-(1-methyl-6-(1H-pyrazol-3-yl)-tetrahydropyrazolo[3,4-b]pyrrolo[2,3-d]pyridin-4-yl)morpholine] showed a pIC50 in assay [2] of 7.03.
In the case of `C[C@@H]1COCCN1c1nc2c(cnn2-c2cc[nH]n2)c2c1CCN2c1cccnc1` [Compound 13, (R)-4-(6-(1H-pyrazol-3-yl)-1-(pyridin-3-yl)-1,2,3,6-tetrahydropyrazolo[3,4-b]pyrrolo[2,3-d]pyridin-4-yl)-3-methylmorpholine trifluoroacetate], on ATR/ATRIP kinase, the pIC50 is 8.12.
